Measured values: patent publication US12152012B2, “BRAG2 inhibitors and applications thereof” (CENTRE NATIONAL DE LA RECHERCHE SCIENTIFIQUE, priority 2018, dated 2024)
“Also recorded” adds a separate entry of the source.

Assays:
BRAG2 (BRAG2^Sec7PH) = molecular target: T1, BRAG2 (BRAG2^Sec7PH) (Homo sapiens, UniProt Q6DN90); experiment: Nucleotide exchange kinetics on liposomes, activation of myristoylated Arf1; type: biochemical
T1 construct: human BRAG2^Sec7 (390-594) and BRAG2^Sec7PH (390-811); made in house
T1 sequence (Q6DN90 512-933): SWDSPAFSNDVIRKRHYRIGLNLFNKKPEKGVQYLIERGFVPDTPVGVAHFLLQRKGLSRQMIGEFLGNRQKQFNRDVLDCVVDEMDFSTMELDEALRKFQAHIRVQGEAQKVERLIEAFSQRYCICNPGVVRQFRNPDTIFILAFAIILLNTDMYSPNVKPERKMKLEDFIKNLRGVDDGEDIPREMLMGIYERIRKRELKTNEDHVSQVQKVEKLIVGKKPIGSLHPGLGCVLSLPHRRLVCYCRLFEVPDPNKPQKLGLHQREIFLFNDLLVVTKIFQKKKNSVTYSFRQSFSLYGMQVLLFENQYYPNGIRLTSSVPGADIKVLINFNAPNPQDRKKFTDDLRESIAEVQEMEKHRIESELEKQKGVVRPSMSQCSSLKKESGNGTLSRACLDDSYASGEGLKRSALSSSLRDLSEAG
Procedure: The effect of Bragsin1 on the GEF efficiency of representative human ArfGEFs was evaluated by fluorescence kinetics using highly purified recombinant Arf GTPases and ArfGEFs. In a first series of assays, the Sec7 domains of BIG1, a Golgi ArfGEF, and of ARNO, EFA6a and BRAG2, which function at the plasma membrane, were used. When tested in solution, Bragsin1 had no effect on the activation of Arf1 by any of these Sec7 domains (FIGS. 2a and 14). Separately, we reconstituted the activation of myristoylated Arf1 by the same ArfGEFs on liposomes using ArfGEF constructs that contain a membrane-binding domain (DCB-HUS domain for BIG1, PH domains for the other GEFs). […] BRAG2 activates several Arf isoforms, including the plasma membrane-located Arf6 isoform. […] Bragsin1 and Bragsin2 have the same IC50 towards BRAG2 ([…]) according to dose-response analysis, confirming that Bragsin1 and Bragsin2 can be used interchangeably (FIG. 2d). The specific inhibition of BRAG2 by Bragsin in vitro predicts that BRAG2 silencing by siRNA should yield the same phenotype as treatment by the small molecule. Silencing of BRAG2 induced the redistribution of TGN46 into tubular or punctate structures, which phenocopied the effects induced by Bragsin (FIGS. 2e, 17 and 18). […] Silencing of ARNO, which is located at the plasma membrane, had no effect on TGN46 distribution. Overexpression of BRAG2-mCherry rescued the dispersion of the TGN46 structure induced by Bragsin, which is consistent with the silencing experiments (FIG. 2f). Bragsin is a specific inhibitor of the ArfGEF BRAG2 in vitro and in cells according to these experiments. These oexperiments identify a mechanism of inhibition that requires the membrane to manifests itself.
Bovine Δ17Arf1 and human Δ13Arf6, full-length myristoylated Arf1 and Arf6, human BRAG2^Sec7 (390-594) and BRAG2^Sec7PH (390-811), human EFA6^Sec7 (527-727) and EFA6^Sec7PHCt (527-1024), ARNO^Sec7 (50-256), BIG1^Sec7 (691-889), BIG1^DcbHusSec7 (2-888) and ARNO^Sec7PH (50-399) were expressed and purified as in (Benabdi, S. et al. Family-wide Analysis of the Inhibition of Arf Guanine Nucleotide Exchange Factors with Small Molecules: Evidence of Unique Inhibitory Profiles. Biochemistry 56, 5125-5133 (2017)) and references therein. BRAG2^Sec7PH mutants were purified as the wild type protein. Purification of human full-length Rac1 carrying a 6xHis tag in C-terminus and human TRIO^DH1PH1 (1232-1550) was described in (Peurois, F. et al. Characterization of the activation of small GTPases by their GEFs on membranes using artificial membrane tethering. Biochem J 474, 1259-1272 (2017)).
Lipids (of natural origin) were from Avanti Polar Lipids, except NBD-PE from Sigma. Liposomes were prepared as described in (Aizel, K. et al. Integrated conformational and lipid-sensing regulation of endosomal ArfGEF BRAG2. PLOS Biol 11, e1001652 (2013)) and extruded at 0.2 μm. For the Arf GEF specificity studies, liposomes contained 48% phosphatidylcholine (PC), 20% phosphatidylethanolamine (PE), 30% phosphatidylserine (PS) and 2% phosphatidylinositol-4,5-bisphosphate (PIP2). For Rac activation assay, liposomes contained 43% PC, 20% PE, 10% PS, 20% cholesterol, 2% PIP2, 5% NiNTA lipids and 0.2% NBD-PE. To exclude aggregation or disruption of the liposomes, their size distribution was controlled before and after experiments by dynamic light scattering as described in (Benabdi, S. et al. Biochemistry 56, 5125-5133 (2017)). Dose-response and flotation assays were carried out with liposomes containing 37.9% PC, 20% PE, 20% PS, 2% PIP2, 20% cholesterol and 0.1% NBD-PE. Flotation assays were carried out as in 18.
Nucleotide exchange kinetics were monitored by tryptophan fluorescence with excitation/emission wavelengths of 292/340 nm using a Cary Eclipse fluorimeter (Varian) at 37° C. and under continuous stirring as described in ^50,51. […]

[1] = Stability in aqueous solution / PBS (mass spectroscopy); type: physicochemical; conditions: for Chemical stability in aqueous solution: after a few days in aqueous solution; for Stability in PBS by mass spectroscopy: dissolved in PBS, within 72 hours

| Compound | Inhibition of BRAG2 in the presence of liposomes (BRAG2 (BRAG2^Sec7PH); 50 μM compound vs DMSO, myristoylated Arf1, liposomes) | Activity towards BRAG2 after storage (BRAG2 (BRAG2^Sec7PH); stock solution in DMSO kept for several months) | Chemical stability in aqueous solution [1] | Stability in PBS by mass spectroscopy [1] | Inhibition of BRAG2 on liposomes that contain PIP2 compared to PS as sole negatively charged lipid (BRAG2 (BRAG2^Sec7PH); lipid composition of liposomes varied) |
| --- | --- | --- | --- | --- | --- |
| Cc1ccc2oc(C(F)(F)F)cc(=O)c2c1[N+](=O)[O-] [Bragsin1, 6-methyl-5-nitro-2-(trifluoromethyl)-4H-chromen-4-one] | strongly inhibited; also recorded: specifically inhibits | lost activity | chemically unstable | slowly decomposed | – |
| COc1ccc2oc(C(F)(F)F)cc(=O)c2c1[N+](=O)[O-] [Bragsin2, 6-methoxy-5-nitro-2-(trifluoromethyl)-4H-chromen-4-one] | – | – | resistant to hydration and stable | remained stable | more efficiently; also recorded: stronger |
